Results taken from US6706740B2, “Fungicidal heterocyclic aromatic amides and their compositions, methods of use and preparation” (Dow AgroSciences LLC, priority 1999, dated 2004).

These compounds were tested on Erysiphe graminis—ERYSGT (assay: Powdery Mildew of Wheat, in vivo whole plant, 24 Hour Protectant). Conditions: Erysiphe; 100 ppm spray, wheat, 24 hour protectant; control of fungal infection vs untreated plants; read-out: ERYSGT in vivo 1 Day Protectant.

SMILES | pest or weed control at 100 ppm
COc1ccnc(C(=O)Nc2ccc(Oc3cccc(Cl)c3)cc2)c1O [Compound 442] | < 25%
COc1ccnc(C(=O)N[C@H]2COC(=O)[C@H](Cc3ccccc3)[C@@H](OC(=O)C3C(C)CCCC3C)[C@H](C)OC2=O)c1O (some centres unmarked) [Compound 393] | < 25%
CO/N=C(/c1ccc(NC(=O)c2nccc(OC)c2O)cc1)c1cccc(C(F)(F)F)c1 [Compound 408] | 25 to 74%

Same assay, conditions: Erysiphe; wheat plants sprayed at 100 ppm, inoculated after 24 hours; control of fungal infection vs untreated plants; read-out: ERYSGT in vivo 1 Day Protectant

SMILES | pest or weed control at 100 ppm
CC(NC(=O)c1nc(Br)ccc1O)c1ccc(C(F)(F)F)cc1 (centres unmarked) [Compound 488] | < 25%

Each compound was assayed on Puccinia recondita—PUCCRT (assay: Brown Rust of Wheat, in vivo whole plant, 24 Hour Protectant). Conditions: Puccinia; 100 ppm spray, wheat, 24 hour protectant; control of fungal infection vs untreated plants; read-out: PUCCRT in vivo 1 Day Protectant.

SMILES | pest or weed control at 100 ppm
COc1ccnc(C(=O)Nc2ccc(Oc3cccc(Cl)c3)cc2)c1O [Compound 442] | 25 to 74%
COc1ccnc(C(=O)N[C@H]2COC(=O)[C@H](Cc3ccccc3)[C@@H](OC(=O)C3C(C)CCCC3C)[C@H](C)OC2=O)c1O (some centres unmarked) [Compound 393] | 25 to 74%
CO/N=C(/c1ccc(NC(=O)c2nccc(OC)c2O)cc1)c1cccc(C(F)(F)F)c1 [Compound 408] | < 25%

Same assay, conditions: Puccinia; wheat plants sprayed at 100 ppm, inoculated after 24 hours; control of fungal infection vs untreated plants; read-out: PUCCRT in vivo 1 Day Protectant

SMILES | pest or weed control at 100 ppm
CC(NC(=O)c1nc(Br)ccc1O)c1ccc(C(F)(F)F)cc1 (centres unmarked) [Compound 488] | 25 to 74%

What follows are compounds tested on Ustilago maydis (USTIMA) (assay: microbe, parasite or virus in culture). Conditions: Mycosarcoma maydis, read-out: USTIMA in vitro Growth Inhibition.
Type: cell-based

SMILES | inhibition at 25 ppm
CC(NC(=O)c1nc(Br)ccc1O)c1ccc(C(F)(F)F)cc1 (centres unmarked) [Compound 488] | < 80%
COc1ccnc(C(=O)Nc2ccc(Oc3cccc(Cl)c3)cc2)c1O [Compound 442] | < 80%
COc1ccnc(C(=O)N[C@H]2COC(=O)[C@H](Cc3ccccc3)[C@@H](OC(=O)C3C(C)CCCC3C)[C@H](C)OC2=O)c1O (some centres unmarked) [Compound 393] | > 80%
CO/N=C(/c1ccc(NC(=O)c2nccc(OC)c2O)cc1)c1cccc(C(F)(F)F)c1 [Compound 408] | < 80%

These compounds were tested on Stagonospora nodorum (Leptosphaeria nodorum—LEPTNO) (assay: In vitro fungal growth inhibition, Stagonospora nodorum (LEPTNO)). Conditions: Leptosphaeria; 25 ppm in growth medium; read-out: LEPTNO in vitro Growth Inhibition.
Type: cell-based

SMILES | inhibition at 25 ppm
COc1ccnc(C(=O)Nc2ccc(Oc3cccc(Cl)c3)cc2)c1O [Compound 442] | > 80%
COc1ccnc(C(=O)N[C@H]2COC(=O)[C@H](Cc3ccccc3)[C@@H](OC(=O)C3C(C)CCCC3C)[C@H](C)OC2=O)c1O (some centres unmarked) [Compound 393] | > 80%
CO/N=C(/c1ccc(NC(=O)c2nccc(OC)c2O)cc1)c1cccc(C(F)(F)F)c1 [Compound 408] | > 80%

Same assay, conditions: Leptosphaeria; 25 ppm in the growth medium; read-out: LEPTNO in vitro Growth Inhibition

SMILES | inhibition at 25 ppm
CC(NC(=O)c1nc(Br)ccc1O)c1ccc(C(F)(F)F)cc1 (centres unmarked) [Compound 488] | < 80%

These compounds were tested on Phytophthora infestans—PHYTIN (assay: whole plant or invertebrate). Conditions: Phytophthora, in Solanum lycopersicum, 24 h, read-out: PHYTIN in vivo 1 Day Protectant.
Type: in vivo

SMILES | pest or weed control at 100 ppm
CC(NC(=O)c1nc(Br)ccc1O)c1ccc(C(F)(F)F)cc1 (centres unmarked) [Compound 488] | < 25%
COc1ccnc(C(=O)Nc2ccc(Oc3cccc(Cl)c3)cc2)c1O [Compound 442] | 25 to 74%
COc1ccnc(C(=O)N[C@H]2COC(=O)[C@H](Cc3ccccc3)[C@@H](OC(=O)C3C(C)CCCC3C)[C@H](C)OC2=O)c1O (some centres unmarked) [Compound 393] | < 25%
CO/N=C(/c1ccc(NC(=O)c2nccc(OC)c2O)cc1)c1cccc(C(F)(F)F)c1 [Compound 408] | < 25%

Each compound was assayed on Septoria tritici—SEPTTR (assay: Leaf Blotch of Wheat, in vivo whole plant, 24 Hour Protectant). Conditions: Zymoseptoria tritici, 24 h, 100 ppm spray, wheat, 24 hour protectant; control of fungal infection vs untreated plants; read-out: SEPTTR in vivo 1 Day Protectant.

SMILES | pest or weed control at 100 ppm
COc1ccnc(C(=O)Nc2ccc(Oc3cccc(Cl)c3)cc2)c1O [Compound 442] | < 25%
COc1ccnc(C(=O)N[C@H]2COC(=O)[C@H](Cc3ccccc3)[C@@H](OC(=O)C3C(C)CCCC3C)[C@H](C)OC2=O)c1O (some centres unmarked) [Compound 393] | 25 to 74%
CO/N=C(/c1ccc(NC(=O)c2nccc(OC)c2O)cc1)c1cccc(C(F)(F)F)c1 [Compound 408] | 25 to 74%

Same assay, conditions: Zymoseptoria tritici, 24 h, wheat plants sprayed at 100 ppm, inoculated after 24 hours; control of fungal infection vs untreated plants; read-out: SEPTTR in vivo 1 Day Protectant

SMILES | pest or weed control at 100 ppm
CC(NC(=O)c1nc(Br)ccc1O)c1ccc(C(F)(F)F)cc1 (centres unmarked) [Compound 488] | 25 to 74%

These compounds were tested on Phytophthora infestans (PHYTIN) (assay: microbe, parasite or virus in culture). Conditions: Phytophthora infestans, read-out: PHYTIN in vitro Growth Inhibition.
Type: cell-based

SMILES | inhibition at 25 ppm
CC(NC(=O)c1nc(Br)ccc1O)c1ccc(C(F)(F)F)cc1 (centres unmarked) [Compound 488] | < 80%
COc1ccnc(C(=O)Nc2ccc(Oc3cccc(Cl)c3)cc2)c1O [Compound 442] | < 80%
COc1ccnc(C(=O)N[C@H]2COC(=O)[C@H](Cc3ccccc3)[C@@H](OC(=O)C3C(C)CCCC3C)[C@H](C)OC2=O)c1O (some centres unmarked) [Compound 393] | < 80%
CO/N=C(/c1ccc(NC(=O)c2nccc(OC)c2O)cc1)c1cccc(C(F)(F)F)c1 [Compound 408] | < 80%

These compounds were tested on Mycosphaerella graminicola (Septoria tritici—SEPTTR) (assay: In vitro fungal growth inhibition, Mycosphaerella graminicola (SEPTTR)). Conditions: Zymoseptoria tritici; 25 ppm in growth medium; read-out: SEPTTR in vitro Growth Inhibition.
Type: cell-based

SMILES | inhibition at 25 ppm
COc1ccnc(C(=O)Nc2ccc(Oc3cccc(Cl)c3)cc2)c1O [Compound 442] | > 80%
COc1ccnc(C(=O)N[C@H]2COC(=O)[C@H](Cc3ccccc3)[C@@H](OC(=O)C3C(C)CCCC3C)[C@H](C)OC2=O)c1O (some centres unmarked) [Compound 393] | > 80%
CO/N=C(/c1ccc(NC(=O)c2nccc(OC)c2O)cc1)c1cccc(C(F)(F)F)c1 [Compound 408] | < 80%

Same assay, conditions: Zymoseptoria tritici; 25 ppm in the growth medium; read-out: SEPTTR in vitro Growth Inhibition

SMILES | inhibition at 25 ppm
CC(NC(=O)c1nc(Br)ccc1O)c1ccc(C(F)(F)F)cc1 (centres unmarked) [Compound 488] | < 80%

These compounds were tested on Magnaporthe grisea (Pyricularia oryzae—PYRIOR) (assay: microbe, parasite or virus in culture). Conditions: Pyricularia oryzae, read-out: PYRIOR in vitro Growth Inhibition.
Type: cell-based

SMILES | inhibition at 25 ppm
CC(NC(=O)c1nc(Br)ccc1O)c1ccc(C(F)(F)F)cc1 (centres unmarked) [Compound 488] | > 80%
COc1ccnc(C(=O)Nc2ccc(Oc3cccc(Cl)c3)cc2)c1O [Compound 442] | > 80%
COc1ccnc(C(=O)N[C@H]2COC(=O)[C@H](Cc3ccccc3)[C@@H](OC(=O)C3C(C)CCCC3C)[C@H](C)OC2=O)c1O (some centres unmarked) [Compound 393] | > 80%
CO/N=C(/c1ccc(NC(=O)c2nccc(OC)c2O)cc1)c1cccc(C(F)(F)F)c1 [Compound 408] | < 80%

Each compound was assayed on Rhizoctonia solani (RHIZSO) (assay: microbe, parasite or virus in culture). Conditions: Rhizoctonia solani, read-out: RHIZSO in vitro Growth Inhibition.
Type: cell-based

SMILES | inhibition at 25 ppm
CC(NC(=O)c1nc(Br)ccc1O)c1ccc(C(F)(F)F)cc1 (centres unmarked) [Compound 488] | < 80%
COc1ccnc(C(=O)Nc2ccc(Oc3cccc(Cl)c3)cc2)c1O [Compound 442] | < 80%
COc1ccnc(C(=O)N[C@H]2COC(=O)[C@H](Cc3ccccc3)[C@@H](OC(=O)C3C(C)CCCC3C)[C@H](C)OC2=O)c1O (some centres unmarked) [Compound 393] | < 80%
CO/N=C(/c1ccc(NC(=O)c2nccc(OC)c2O)cc1)c1cccc(C(F)(F)F)c1 [Compound 408] | < 80%

What follows are compounds tested on Leptosphaeria nodorum—LEPTNO (assay: Glume Blotch of Wheat, in vivo whole plant, 24 Hour Protectant). Conditions: Leptosphaeria; 100 ppm spray, wheat, 24 hour protectant; control of fungal infection vs untreated plants; read-out: LEPTNO in vivo 1 Day Protectant.

SMILES | pest or weed control at 100 ppm
COc1ccnc(C(=O)Nc2ccc(Oc3cccc(Cl)c3)cc2)c1O [Compound 442] | < 25%
COc1ccnc(C(=O)N[C@H]2COC(=O)[C@H](Cc3ccccc3)[C@@H](OC(=O)C3C(C)CCCC3C)[C@H](C)OC2=O)c1O (some centres unmarked) [Compound 393] | 25 to 74%
CO/N=C(/c1ccc(NC(=O)c2nccc(OC)c2O)cc1)c1cccc(C(F)(F)F)c1 [Compound 408] | 25 to 74%

Same assay, conditions: Leptosphaeria; wheat plants sprayed at 100 ppm, inoculated after 24 hours; control of fungal infection vs untreated plants; read-out: LEPTNO in vivo 1 Day Protectant

SMILES | pest or weed control at 100 ppm
CC(NC(=O)c1nc(Br)ccc1O)c1ccc(C(F)(F)F)cc1 (centres unmarked) [Compound 488] | < 25%
